Laboratory results from PubChem BioAssay AID1259407 (Chemical Carcinogenesis Research Information System (CCRIS), 2018).
The source made the active and inactive calls. The rule behind the calls is not given here.

System: CCRIS mutagenicity, Ames/micronucleus/aberration tests
Assay: CCRIS mutagenicity studies
[1] = Test System: AMES SALMONELLA TYPHIMURIUM, Strain/Indicator: TA98, Metabolic Activation: HAMSTER, LIVER, S-9, AROCLOR 1254 (10%), Method: PREINCUBATION
[2] = Test System: AMES SALMONELLA TYPHIMURIUM, Strain/Indicator: TA98, Metabolic Activation: NONE, Method: PREINCUBATION
[3] = Test System: AMES SALMONELLA TYPHIMURIUM, Strain/Indicator: TA98, Metabolic Activation: NONE, Method: STANDARD PLATE
[4] = Test System: AMES SALMONELLA TYPHIMURIUM, Strain/Indicator: TA98, Metabolic Activation: RAT, LIVER, S-9, AROCLOR 1254 (10%), Method: PREINCUBATION
[5] = Test System: AMES SALMONELLA TYPHIMURIUM, Strain/Indicator: TA98, Metabolic Activation: RAT, LIVER, S-9, AROCLOR 1254, Method: STANDARD PLATE
[6] = Test System: AMES SALMONELLA TYPHIMURIUM, Strain/Indicator: TA100, Metabolic Activation: HAMSTER, LIVER, S-9, AROCLOR 1254 (10%), Method: PREINCUBATION
[7] = Test System: AMES SALMONELLA TYPHIMURIUM, Strain/Indicator: TA100, Metabolic Activation: NONE, Method: PREINCUBATION
[8] = Test System: AMES SALMONELLA TYPHIMURIUM, Strain/Indicator: TA100, Metabolic Activation: NONE, Method: STANDARD PLATE
[9] = Test System: AMES SALMONELLA TYPHIMURIUM, Strain/Indicator: TA100, Metabolic Activation: RAT, LIVER, S-9, AROCLOR 1254 (10%), Method: PREINCUBATION
[10] = Test System: AMES SALMONELLA TYPHIMURIUM, Strain/Indicator: TA100, Metabolic Activation: RAT, LIVER, S-9, AROCLOR 1254, Method: STANDARD PLATE
[11] = Test System: AMES SALMONELLA TYPHIMURIUM, Strain/Indicator: TA1535, Metabolic Activation: HAMSTER, LIVER, S-9, AROCLOR 1254 (10%), Method: PREINCUBATION
[12] = Test System: AMES SALMONELLA TYPHIMURIUM, Strain/Indicator: TA1535, Metabolic Activation: NONE, Method: PREINCUBATION
[13] = Test System: AMES SALMONELLA TYPHIMURIUM, Strain/Indicator: TA1535, Metabolic Activation: NONE, Method: STANDARD PLATE
[14] = Test System: AMES SALMONELLA TYPHIMURIUM, Strain/Indicator: TA1535, Metabolic Activation: RAT, LIVER, S-9, AROCLOR 1254 (10%), Method: PREINCUBATION
[15] = Test System: AMES SALMONELLA TYPHIMURIUM, Strain/Indicator: TA1535, Metabolic Activation: RAT, LIVER, S-9, AROCLOR 1254, Method: STANDARD PLATE
[16] = Test System: AMES SALMONELLA TYPHIMURIUM, Strain/Indicator: TA1537, Metabolic Activation: NONE, Method: STANDARD PLATE
[17] = Test System: AMES SALMONELLA TYPHIMURIUM, Strain/Indicator: TA1537, Metabolic Activation: RAT, LIVER, S-9, AROCLOR 1254, Method: STANDARD PLATE
[18] = Test System: AMES SALMONELLA TYPHIMURIUM, Strain/Indicator: TA1538, Metabolic Activation: NONE, Method: STANDARD PLATE
[19] = Test System: AMES SALMONELLA TYPHIMURIUM, Strain/Indicator: TA1538, Metabolic Activation: RAT, LIVER, S-9, AROCLOR 1254, Method: STANDARD PLATE

Compound	mutagenic call [1]	mutagenic call [2]	mutagenic call [3]	mutagenic call [4]	mutagenic call [5]	mutagenic call [6]	mutagenic call [7]	mutagenic call [8]	mutagenic call [9]	mutagenic call [10]	mutagenic call [11]	mutagenic call [12]	mutagenic call [13]	mutagenic call [14]	mutagenic call [15]	mutagenic call [16]	mutagenic call [17]	mutagenic call [18]	mutagenic call [19]	other results
C=CCc1ccc(OC)cc1	inactive; negative	inactive; negative	inactive; negative	inactive; negative	inactive; negative	inactive; negative	inactive; negative	inactive; negative	inactive; negative	inactive; negative	inactive; negative	inactive; negative	inactive; negative	inactive; negative	inactive; negative	inactive; negative	inactive; negative	inactive; negative	inactive; negative	mutagenic call (Test System: AMES SALMONELLA TYPHIMURIUM, Strain/Indicator: TA1535, Metabolic Activation: PAPS, Method: STANDARD PLATE): inactive; negative; mutagenic call (Test System: AMES SALMONELLA TYPHIMURIUM, Strain/Indicator: TA1535, Metabolic Activation: RAT, LIVER, S-9, AROCLOR 1254, PAPS, Method: STANDARD PLATE): active; positive; mutagenic call (Test System: AMES SALMONELLA TYPHIMURIUM, Strain/Indicator: TA1537, Metabolic Activation: HAMSTER, LIVER, S-9, AROCLOR 1254 (10%), Method: PREINCUBATION): inactive; negative; mutagenic call (Test System: AMES SALMONELLA TYPHIMURIUM, Strain/Indicator: TA1537, Metabolic Activation: NONE, Method: PREINCUBATION): inactive; negative; mutagenic call (Test System: AMES SALMONELLA TYPHIMURIUM, Strain/Indicator: TA1537, Metabolic Activation: RAT, LIVER, S-9, AROCLOR 1254 (10%), Method: PREINCUBATION): inactive; negative; mutagenic call (Test System: UDS RAT HEPATOCYTES, Strain/Indicator: THY INCORP, Metabolic Activation: NONE, Method: IN VITRO): active; positive; mutagenic call (Test System: UDS RAT HEPATOCYTES, Strain/Indicator: THY INCORP, Metabolic Activation: NONE, Method: IN VIVO): active; positive
C=C(Cl)CCl	active; positive	active; positive	active; positive	active; positive	inactive; negative	active; positive	active; positive	active; positive	active; positive	active; positive	active; positive	active; positive	active; positive	active; positive	active; positive	inactive; negative	inactive; negative	inactive; negative	inactive; negative	mutagenic call (End Point: IN VITRO CHROMOSOMAL ABERRATIONS, Test System: CHO-LB CELLS, Metabolic Activation: NONE): active; positive; mutagenic call (End Point: IN VITRO CHROMOSOMAL ABERRATIONS, Test System: CHO-LB CELLS, Metabolic Activation: RAT, LIVER, S-9, AROCLOR 1254): active; positive; mutagenic call (Test System: AMES SALMONELLA TYPHIMURIUM, Strain/Indicator: TA97, Metabolic Activation: HAMSTER, LIVER, S-9, AROCLOR 1254 (10%), Method: PREINCUBATION): active; positive; mutagenic call (Test System: AMES SALMONELLA TYPHIMURIUM, Strain/Indicator: TA97, Metabolic Activation: NONE, Method: PREINCUBATION): active; positive; mutagenic call (Test System: AMES SALMONELLA TYPHIMURIUM, Strain/Indicator: TA97, Metabolic Activation: RAT, LIVER, S-9, AROCLOR 1254 (10%), Method: PREINCUBATION): active; positive; mutagenic call (Test System: AMES SALMONELLA TYPHIMURIUM, Strain/Indicator: TA98, Metabolic Activation: HAMSTER, LIVER, S-9, AROCLOR 1254, Method: STANDARD PLATE): active; positive; mutagenic call (Test System: AMES SALMONELLA TYPHIMURIUM, Strain/Indicator: TA100, Metabolic Activation: HAMSTER, LIVER, S-9, AROCLOR 1254, Method: STANDARD PLATE): active; positive; mutagenic call (Test System: AMES SALMONELLA TYPHIMURIUM, Strain/Indicator: TA100, Metabolic Activation: RAT, LIVER, MICROSOMES, PHENOBARBITAL, NADPH COFACTORS, Method: STANDARD PLATE): inactive; negative; mutagenic call (Test System: AMES SALMONELLA TYPHIMURIUM, Strain/Indicator: TA100, Metabolic Activation: RAT, LIVER, MICROSOMES, PHENOBARBITAL, Method: STANDARD PLATE): inactive; negative; mutagenic call (Test System: AMES SALMONELLA TYPHIMURIUM, Strain/Indicator: TA102, Metabolic Activation: S-9, Method: STANDARD PLATE): inactive; negative; mutagenic call (Test System: AMES SALMONELLA TYPHIMURIUM, Strain/Indicator: TA1535, Metabolic Activation: HAMSTER, LIVER, S-9, AROCLOR 1254, Method: STANDARD PLATE): active; positive; mutagenic call (Test System: AMES SALMONELLA TYPHIMURIUM, Strain/Indicator: TA1537, Metabolic Activation: HAMSTER, LIVER, S-9, AROCLOR 1254, Method: STANDARD PLATE): inactive; negative; mutagenic call (Test System: AMES SALMONELLA TYPHIMURIUM, Strain/Indicator: TA1538, Metabolic Activation: HAMSTER, LIVER, S-9, AROCLOR 1254, Method: STANDARD PLATE): inactive; negative; mutagenic call (Test System: AMES SALMONELLA TYPHIMURIUM, Strain/Indicator: TA1978, Metabolic Activation: NONE, Method: STANDARD PLATE): active; positive; mutagenic call (Test System: AMES SALMONELLA TYPHIMURIUM, Strain/Indicator: TA1978, Metabolic Activation: RAT, LIVER, S-9, AROCLOR 1254, Method: STANDARD PLATE): active; positive; mutagenic call (Test System: AMES SALMONELLA TYPHIMURIUM, Strain/Indicator: TA2638, Metabolic Activation: S-9, Method: STANDARD PLATE): inactive; negative; mutagenic call (Test System: E. COLI, Strain/Indicator: WP2 (PKM101), Metabolic Activation: S-9, Method: STANDARD PLATE): inactive; negative; mutagenic call (Test System: E. COLI, Strain/Indicator: WP2 UVRA (PKM101), Metabolic Activation: S-9, Method: STANDARD PLATE): active; positive; mutagenic call (Test System: MOUSE LYMPHOMA, Strain/Indicator: L5178Y (TK+/TK-), Metabolic Activation: NONE, Method: SUSPENSION/PLATE): active; positive. reevaluation of results: positive; mutagenic call (Test System: MOUSE LYMPHOMA, Strain/Indicator: L5178Y (TK+/TK-), Metabolic Activation: RAT, LIVER, S-9, AROCLOR 1254, Method: SUSPENSION/PLATE): active; positive. reevaluation of results: positive
